This experiment has as its target T1, human DP2 receptor (Homo sapiens, UniProt Q9Y5Y4).
T1 construct: expressed in transfected cells
T1 sequence (Q9Y5Y4 1-395): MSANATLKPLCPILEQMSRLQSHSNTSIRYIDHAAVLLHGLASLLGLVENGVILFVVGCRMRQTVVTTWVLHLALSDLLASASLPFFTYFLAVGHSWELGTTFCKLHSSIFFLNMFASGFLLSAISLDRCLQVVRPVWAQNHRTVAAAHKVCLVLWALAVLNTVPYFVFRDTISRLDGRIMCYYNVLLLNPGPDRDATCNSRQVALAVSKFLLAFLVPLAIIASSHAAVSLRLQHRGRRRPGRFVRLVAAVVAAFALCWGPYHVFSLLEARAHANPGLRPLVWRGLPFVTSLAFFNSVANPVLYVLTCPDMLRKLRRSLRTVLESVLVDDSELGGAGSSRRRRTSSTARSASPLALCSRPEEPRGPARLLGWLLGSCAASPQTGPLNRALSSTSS
Nature of the experiment: DP2/CRTH2 binding assay (radioligand binding with [3H]PGD2). As to conditions: [3H]PGD2 binding, membranes of HEK293 cells expressing recombinant human DP2; read-out: hDP2. As to the method: The ability of a compound to bind to the human DP2 receptor is assessed via a radioligand binding assay using [^3H]PGD2. HEK293 cells stably expressing recombinant human DP2 are resuspended in 10 mM Hepes, 7.4 containing 1 mM DTT, lysed and centrifuged at 75,000×g to pellet the membranes. The membranes are resuspended in 10 mM Hepes, 7.4 containing 1 mM DTT and 10% glycerol to approximately 5 mg protein/ml. Membranes (2-10 μg protein/well) are incubated in 96-well plates with 1 nM [^3H]PGD2 and test compound in Assay Buffer (50 mM Hepes, 10 mM MnCl2, 1 mM EDTA, plus or minus 0.2% human serum albumin, pH 7.4) for 60 minutes at room temperature. The reactions are terminated by rapid filtration through Whatman GF/C glass fibre filter plates. The filter plates were pre-soaked in 0.33% polythylenimine for 30 minutes at room temperature then washed in Wash Buffer (50 mM Hepes, 0.5 M NaCl pH 7.4) prior to harvesting. After harvesting, the filter plates are washed 3 times with 1 ml cold Wash Buffer then dried. Scintillant is then added to the plates and the radioactivity retained on the filters is determined on a Packard TopCount (Perkin Elmer). Specific binding is determined as total radioactive binding minus non-specific binding in the presence of 10 μM PGD2. IC50s were determined using GraphPad prism analysis of drug titration curves.
`CC(=O)N(Cc1ccccc1)Cc1cc(C(F)(F)F)ccc1-c1cc(CC(=O)O)cnc1O` [Compound 26, (5-{2-[(N-Acetyl-N-benzyl-amino)-methyl]-4-trifluoromethyl-phenyl}-6-hydroxy-pyridin-3-yl)-acetic acid]: the IC50 was below 300 nM. For the compound `CCN(Cc1cc(C(F)(F)F)ccc1-c1cc(CC(=O)O)cnc1OC)C(=O)COC` [Compound 42, [5-(2-{[N-Ethyl-N-(2-methoxy-acetyl)-amino]-methyl}-4-trifluoromethyl-phenyl)-6-methoxy-pyridin-3-yl]-acetic acid], the IC50 was below 300 nM. Take `CNC(=O)c1ccc(-c2cncc(CC(=O)O)c2)c(CN(Cc2ccccc2)C(=O)C2CC2)c1` [Compound 6, (5-{2-[(N-Benzyl-N-cyclopropanecarbonyl-amino)-methyl]-4-methylcarbamoyl-phenyl}-pyridin-3-yl)-acetic acid]: the IC50 was in the range of 300 to 1000 nM. `CCOC(=O)N(CC)Cc1cc(C(F)(F)F)ccc1-c1cc(CC(=O)O)cnc1OC` [Compound 43, (5-{2-[(N-Ethoxycarbonyl-N-ethyl-amino)-methyl]-4-trifluoromethyl-phenyl}-6-methoxy-pyridin-3-yl)-acetic acid]: the IC50 was below 300 nM.

For the compound `CCN(Cc1cc(C(F)(F)F)ccc1-c1cncc(CC(=O)O)c1)C(=O)Cc1ccc(C)nc1` [Compound 37, {5-[2-({N-Ethyl-N-[2-(6-methyl-pyridin-3-yl)-acetyl]-amino}-methyl)-4-trifluoromethyl-phenyl]-pyridin-3-yl}-acetic acid], the IC50 is below 300 nM. As for `CCN(Cc1cc(C(F)(F)F)ccc1-c1cc(CC(=O)O)cnc1OCC(F)(F)F)C(=O)C1CC1` [Compound 39, [5-{2-[(N-Cyclopropanecarbonyl-N-ethyl-amino)-methyl]-4-trifluoromethyl-phenyl}-6-(2,2,2-trifluoro-ethoxy)-pyridin-3-yl]-acetic acid], the IC50 is below 300 nM. The same measure for `CC(=O)N(Cc1ccccc1)Cc1cc(C(F)(F)F)ccc1-c1cnc(Cl)c(CC(=O)O)c1` [Compound 20, (5-{2-[(N-Acetyl-N-benzyl-amino)-methyl]-4-trifluoromethyl-phenyl}-2-chloro-pyridin-3-yl)-acetic acid]: below 300 nM; for `CCN(Cc1cc(F)ccc1-c1cncc(CC(=O)O)c1)C(=O)C1CC1` [Compound 23, (5-{2-[(N-Cyclopropanecarbonyl-N-ethyl-amino)-methyl]-4-fluoro-phenyl}-pyridin-3-yl)-acetic acid]: 300 to 1000 nM. Turning to `CCN(Cc1cc(S)ccc1-c1cncc(CC(=O)O)c1)C(=O)C1CC1` [Compound 24, (5-{2-[(N-Cyclopropanecarbonyl-N-ethyl-amino)-methyl]-4-mercapto-phenyl}-pyridin-3-yl)-acetic acid], the IC50 was below 300 nM. For `CCN(Cc1cc(C(F)(F)F)ccc1-c1cc(CC(=O)O)cnc1OC)C(=O)NCc1ccccc1` [Compound 27, {5-[2-(3-Benzyl-1-ethyl-ureidomethyl)-4-trifluoromethyl-phenyl]-6-methoxy-pyridin-3-yl}-acetic acid], the IC50 was below 300 nM. Turning to `CCN(Cc1cc(C(=O)O)ccc1-c1cncc(CC(=O)O)c1)C(=O)C1CC1` [Compound 2, 4-(5-Carboxymethyl-pyridin-3-yl)-3-[(N-cyclopropanecarbonyl-N-ethyl-amino)-methyl]-benzoic acid], the IC50 is below 300 nM. Regarding `CCN(Cc1cc(C(F)(F)F)ccc1-c1cncc(CC(=O)O)c1)C(=O)c1cc(OC)nc(OC)n1` [Compound 30], the IC50 is above 1000 nM. The same measure for `CCN(Cc1cc(C(=O)O)ccc1-c1cncc(CC(=O)O)c1)C(=O)OCc1ccccc1` [Compound 1, 3-[(N-Benzyloxycarbonyl-N-ethyl-amino)-methyl]-4-(5-carboxymethyl-pyridin-3-yl)-benzoic acid]: below 300 nM. As for `COc1ncc(CC(=O)O)cc1-c1ccc(C(F)(F)F)cc1CN(Cc1ccccc1)C(C)=O` [Compound 28, (5-{2-[(N-Acetyl-N-benzyl-amino)-methyl]-4-trifluoromethyl-phenyl}-6-methoxy-pyridin-3-yl)-acetic acid], the IC50 was below 300 nM. Turning to `CCN(Cc1cc(C(F)(F)F)ccc1-c1cc(CC(=O)O)cnc1OC)C(=O)C1CC1` [Compound 10, (5-{2-[(N-Cyclopropanecarbonyl-N-ethyl-amino)-methyl]-4-trifluoromethyl-phenyl}-6-methoxy-pyridin-3-yl)-acetic acid], the IC50 was below 300 nM. For `CC(=O)N(Cc1ccccc1)Cc1cc(C(F)(F)F)ccc1-c1cncc(CC(=O)O)c1` [Compound 18, (5-{2-[(N-Acetyl-N-benzyl-amino)-methyl]-4-trifluoromethyl-phenyl}-pyridin-3-yl)-acetic acid], the IC50 is below 300 nM.

`CCN(Cc1cc(C(F)(F)F)ccc1-c1cncc(CC(=O)O)c1)C(=O)c1cnccn1` [Compound 29, [5-(2-{[N-Ethyl-N-(pyrazine-2-carbonyl)-amino]-methyl}-4-trifluoromethyl-phenyl)-pyridin-3-yl]-acetic acid]: the IC50 lay in the range of 300 to 1000 nM.

Take `O=C(O)CCn1c2c(c3ccccc31)C[C@H](NS(=O)(=O)c1ccc(F)cc1)CC2` [Ramatroban, reference compound]: the IC50 was in the range of 300 to 1000 nM.

`CCN(Cc1cc(C(F)(F)F)ccc1-c1cncc(CC(=O)O)c1)C(=O)Cc1ccccc1` [Compound 16, (5-{2-[(N-Ethyl-N-phenylacetyl-amino)-methyl]-4-trifluoromethyl-phenyl}-pyridin-3-yl)-acetic acid]: the IC50 was below 300 nM.

In the case of `CCOCC(=O)N(CC)Cc1cc(C(F)(F)F)ccc1-c1cncc(CC(=O)O)c1` [Compound 35, [5-(2-{[N-(2-Ethoxy-acetyl)-N-ethyl-amino]-methyl}-4-trifluoromethyl-phenyl)-pyridin-3-yl]-acetic acid], the IC50 lay in the range of 300 to 1000 nM. With `CCN(Cc1cc(C(F)(F)F)ccc1-c1cc(CC(=O)O)cnc1OC)C(C)=O` [Compound 41, (5-{2-[(N-Acetyl-N-ethyl-amino)-methyl]-4-trifluoromethyl-phenyl}-6-methoxy-pyridin-3-yl)-acetic acid], the IC50 lay within 300 to 1000 nM.

`CCN(Cc1cc(C(F)(F)F)ccc1-c1cncc(CC(=O)O)c1)C(=O)OC(C)(C)C` [Compound 13, (5-{2-[(N-tert-Butoxycarbonyl-N-ethyl-amino)-methyl]-4-trifluoromethyl-phenyl}-pyridin-3-yl)-acetic acid]: the IC50 is below 300 nM. On to `CCN(Cc1cc(SC)ccc1-c1cncc(CC(=O)O)c1)C(=O)C1CC1` [Compound 21, (5-{2-[(N-Cyclopropanecarbonyl-N-ethyl-amino)-methyl]-4-methylsulfanyl-phenyl}-pyridin-3-yl)-acetic acid], for which the IC50 is below 300 nM. For the compound `CCN(Cc1cc(C(F)(F)F)ccc1-c1cncc(CC(=O)O)c1)C(=O)C1CC1` [Compound 8, (5-{2-[(N-Cyclopropanecarbonyl-N-ethyl-amino)-methyl]-4-trifluoromethyl-phenyl}-pyridin-3-yl)-acetic acid], the IC50 was below 300 nM.

For `O=C(O)Cc1cncc(-c2ccc(C(F)(F)F)cc2CN(Cc2ccccc2)C(=O)C2CC2)c1` [Compound 17, (5-{2-[(N-Benzyl-N-cyclopropanecarbonyl-amino)-methyl]-4-trifluoromethyl-phenyl}-pyridin-3-yl)-acetic acid], the IC50 is below 300 nM.

Turning to `CCN(Cc1cc(C(F)(F)F)ccc1-c1cc(CC(=O)O)cnc1O)C(=O)C1CC1` [Compound 38, (5-{2-[(N-Cyclopropanecarbonyl-N-ethyl-amino)-methyl]-4-trifluoromethyl-phenyl}-6-hydroxy-pyridin-3-yl)-acetic acid], the IC50 was in the range of 300 to 1000 nM.

Regarding `CCN(Cc1cc(C(F)(F)F)ccc1-c1cnc(Cl)c(CC(=O)O)c1)C(=O)C1CC1` [Compound 9, (2-Chloro-5-{2-[(N-cyclopropanecarbonyl-N-ethyl-amino)-methyl]-4-trifluoromethyl-phenyl}-pyridin-3-yl)-acetic acid], the IC50 lay in the range of 300 to 1000 nM. As for `CCOc1cc(OCC)nc(CC(=O)N(CC)Cc2cc(C(F)(F)F)ccc2-c2cncc(CC(=O)O)c2)n1` [Compound 32, {5-[2-({N-[2-(4,6-Diethoxy-pyrimidin-2-yl)-acetyl]-N-ethyl-amino}-methyl)-4-trifluoromethyl-phenyl]-pyridin-3-yl}-acetic acid], the IC50 is below 300 nM. In the case of `O=C(O)Cc1cncc(-c2ccc(C(=O)NCc3ccccc3)cc2CN(Cc2ccccc2)C(=O)C2CC2)c1` [Compound 5, (5-{4-Benzylcarbamoyl-2-[(N-benzyl-N-cyclopropanecarbonyl-amino)-methyl]-phenyl}-pyridin-3-yl)-acetic acid], the IC50 was below 300 nM.

Source of the values: patent US8049015B2 (Panmira Pharmaceuticals, LLC, priority 2008, dated 2011).
